From patent US20250230193A1, “CYCLIC COMPOUND HAVING SELECTIVE KRAS INHIBITORY EFFECT ON HRAS AND NRAS” (CHUGAI SEIYAKU KABUSHIKI KAISHA, priority 2022, published 2025)
Where a SMILES comes first, the peptide text is derived from it. Bridges are numbered along the chain shown (N, C = ends). [ ]: non-standard residue; d: D form. The star is where a group is joined. hPhe(3-Cl-4-CF3) = N[C@@H](CCc1ccc(C(F)(F)F)c(Cl)c1)C(=O)O; NPrPhe(4-CF3) = CCCN[C@@H](Cc1ccc(C(F)(F)F)cc1)C(=O)O; NEtPhe(4-Me) = CCN[C@@H](Cc1ccc(C)cc1)C(=O)O; NMeGly(cPent) = CN[C@H](C(=O)O)C1CCCC1; NMeD = CN[C@@H](CC(=O)O)C(=O)O; NMeL = CN[C@@H](CC(C)C)C(=O)O; Morpholide = C1CN(*)CCO1; Ac5c = NC1(C(=O)O)CCCC1; Abu = CC[C@H](N)C(=O)O; NEtG = CCNCC(=O)O; Sar = CNCC(=O)O

Assays:
[1] = biological target: GDP-bound NRAS wild-type protein (Homo sapiens, UniProt P01111); assay: Binding to NRAS by surface plasmon resonance (SPR), Single Cycle Kinetics; conditions: SPR; for NRAS/KRAS (ratio of KD value for NRAS to KD value for KRAS): GDP-bound NRAS wild-type vs GDP-bound KRAS wild-type
Chain of GDP-bound NRAS wild-type protein (P01111 whole entry): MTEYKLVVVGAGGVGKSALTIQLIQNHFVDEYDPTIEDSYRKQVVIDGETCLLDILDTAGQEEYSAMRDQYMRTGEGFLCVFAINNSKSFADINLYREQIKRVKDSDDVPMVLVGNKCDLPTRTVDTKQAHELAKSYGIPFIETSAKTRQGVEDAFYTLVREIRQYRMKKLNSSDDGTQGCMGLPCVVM

[2] = biological target: GDP-bound HRAS wild-type protein (Homo sapiens, UniProt P01112); assay: Binding to HRAS by surface plasmon resonance (SPR), Single Cycle Kinetics; conditions: SPR; for HRAS/KRAS (ratio of KD value for HRAS to KD value for KRAS): GDP-bound HRAS wild-type vs GDP-bound KRAS wild-type
Chain of GDP-bound HRAS wild-type protein (P01112 whole entry): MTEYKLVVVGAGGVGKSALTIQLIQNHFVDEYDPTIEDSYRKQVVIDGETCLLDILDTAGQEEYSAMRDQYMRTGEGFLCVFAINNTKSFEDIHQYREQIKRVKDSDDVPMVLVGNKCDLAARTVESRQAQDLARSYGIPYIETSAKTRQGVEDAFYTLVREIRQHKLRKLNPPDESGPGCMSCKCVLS

CC[C@H](C)[C@@H]1NC(=O)[C@H](CC(C)C)N(C)C(=O)C[C@@H](C(=O)N(C)CC)N(C)C(=O)[C@H](C2CCCC2)N(C)C(=O)C2(CC(C)(C)C2)NC(=O)[C@@H]2C[C@H](C)CN2C(=O)[C@H](CCc2ccc(C(F)(F)F)c(OC)c2)NC(=O)CN(C)C(=O)[C@H](Cc2ccc(C)cc2)N2CC/C=C\C[C@@H](C2=O)N(C)C(=O)CN(C)C1=O [PP1906]
NRAS/KRAS (ratio of KD value for NRAS to KD value for KRAS) [1]: A (a compound having 10 or more and less than 20 is denoted as A) | HRAS/KRAS (ratio of KD value for HRAS to KD value for KRAS) [2]: A (a compound having 10 or more and less than 20 is denoted as A)

CCCN1C(=O)CN(C)C(=O)CN(C)C(=O)[C@H](CC)NC(=O)[C@H](CC(C)C)N(C)C(=O)C[C@@H](C(=O)N2CCOCC2)N(C)C(=O)[C@H](C2CCCC2)N(C)C(=O)C2(CCCC2)NC(=O)[C@@H]2CCCN2C(=O)[C@H](CCc2ccc(C(F)(F)F)c(Cl)c2)NC(=O)CN(C)C(=O)[C@@H]1Cc1ccc(C(F)(F)F)cc1 [PP0248] ([NMeL][Abu][Sar][Sar][NPrPhe(4-CF3)][Sar][hPhe(3-Cl-4-CF3)]P[Ac5c][NMeGly(cPent)][NMeD]-Morpholide; lactam N-11)
NRAS/KRAS (ratio of KD for GDP-bound NRAS wild-type to KD for KRAS) [1]: B (a compound having 3 or more and less than 10 is denoted as B) | HRAS/KRAS (ratio of KD for GDP-bound HRAS wild-type to KD for KRAS) [2]: B (a compound having 3 or more and less than 10 is denoted as B)

CC[C@H](C)[C@@H]1NC(=O)[C@H](CC(F)(F)F)N(C)C(=O)C[C@@H](C(=O)N2CCOCC2)N(C)C(=O)[C@H](C2CCCC2)N(C)C(=O)C2(CCCC2)NC(=O)[C@@H]2CCCN2C(=O)[C@H](CCc2cc(F)c(C(F)(F)F)c(F)c2)NC(=O)CN(C)C(=O)[C@H](Cc2ccc(C(F)(F)F)cc2)N2CCCC[C@@H](C2=O)N(C)C(=O)CN(C)C1=O [PP0594]
NRAS/KRAS (ratio of KD value with respect to GDP-bound NRAS wild-type protein to KD value with respect to KRAS) [1]: C (A compound having a KD ratio of 0.1 or more and less than 3 is denoted as C) | HRAS/KRAS (ratio of KD value with respect to GDP-bound HRAS wild-type protein to KD value with respect to KRAS) [2]: B (a compound having 3 or more and less than 10 is denoted as B)

CC[C@H](C)[C@@H]1NC(=O)[C@H](CC(C)C)N(C)C(=O)C[C@@H](C(=O)N2CCOCC2)N(C)C(=O)[C@H](CC(C)C)N(C)C(=O)C2(CCCC2)NC(=O)[C@@H]2CCCN2C(=O)[C@H](CCc2ccc(C(F)(F)F)c(Cl)c2)NC(=O)CN(C)C(=O)[C@H](Cc2ccc(C)cc2)N(CC)C(=O)CN(C)C(=O)CN(C)C1=O [PP0045] ([NMeL]I[Sar][Sar][NEtPhe(4-Me)][Sar][hPhe(3-Cl-4-CF3)]P[Ac5c][NMeL][NMeD]-Morpholide; lactam N-11)
NRAS/KRAS (ratio of KD for GDP-bound NRAS wild-type to KD for KRAS) [1]: C (A compound having a KD ratio of 0.1 or more and less than 3 is denoted as C) | HRAS/KRAS (ratio of KD for GDP-bound HRAS wild-type to KD for KRAS) [2]: C (A compound having a KD ratio of 0.1 or more and less than 3 is denoted as C)

CC[C@H](C)[C@@H]1NC(=O)[C@@H]2CCCCCN2C(=O)C[C@@H](C(=O)N2CCOCC2)N(C)C(=O)[C@H](C2CCCC2)N(C)C(=O)C2(CCCC2)NC(=O)[C@@H]2CCCN2C(=O)[C@H](CCc2cc(F)c(C(F)(F)F)c(F)c2)NC(=O)CN(C)C(=O)[C@H](Cc2ccc(C(F)(F)F)cc2)N2CCCCC[C@@H](C2=O)N(C)C(=O)CN(C)C1=O [PP0521]
NRAS/KRAS (ratio of KD value with respect to GDP-bound NRAS wild-type protein to KD value with respect to KRAS) [1]: B (a compound having 3 or more and less than 10 is denoted as B) | HRAS/KRAS (ratio of KD value with respect to GDP-bound HRAS wild-type protein to KD value with respect to KRAS) [2]: B (a compound having 3 or more and less than 10 is denoted as B)

CCCN1C(=O)CN(C)C(=O)CN(CC)C(=O)[C@H]([C@@H](C)CC)NC(=O)[C@H](CC(C)C)N(C)C(=O)C[C@@H](C(=O)N(C)C)N(C)C(=O)[C@H](C2CCCC2)N(C)C(=O)C2(CCCC2)NC(=O)[C@@H]2CCCN2C(=O)[C@H](CCc2ccc(C(F)(F)F)c(Cl)c2)NC(=O)CN(C)C(=O)[C@@H]1Cc1ccc(C(F)(F)F)cc1 [PP0423] ([NMeL]I[NEtG][Sar][NPrPhe(4-CF3)][Sar][hPhe(3-Cl-4-CF3)]P[Ac5c][NMeGly(cPent)][NMeD]-NMe2; lactam N-11)
NRAS/KRAS (ratio of KD value with respect to GDP-bound NRAS wild-type protein to KD value with respect to KRAS) [1]: B (a compound having 3 or more and less than 10 is denoted as B) | HRAS/KRAS (ratio of KD value with respect to GDP-bound HRAS wild-type protein to KD value with respect to KRAS) [2]: C (A compound having a KD ratio of 0.1 or more and less than 3 is denoted as C)

CCCC[C@H]1C(=O)N[C@@H]([C@@H](C)CC)C(=O)N(C)CC(=O)N(C)[C@H]2C/C=C\CCN(C2=O)[C@@H](Cc2ccc(C(F)(F)F)cc2)C(=O)N(C)CC(=O)N[C@@H](CCc2cc(F)c(C(F)(F)F)c(F)c2)C(=O)N2C[C@H](OCC)C[C@H]2C(=O)NC2(CC(C)(C)C2)C(=O)N(C)[C@@H](C2CCCC2)C(=O)N(C)[C@H](C(=O)N(C)C)CC(=O)N1C [PP1649]
NRAS/KRAS (ratio of KD value for NRAS to KD value for KRAS) [1]: A (a compound having 10 or more and less than 20 is denoted as A) | HRAS/KRAS (ratio of KD value for HRAS to KD value for KRAS) [2]: B (a compound having 3 or more and less than 10 is denoted as B)
